# Reference: ChEMBL document CHEMBL5661965, “CI-1033, a pan-erbB tyrosine kinase inhibitor” (Semin Oncol, 2001)
# What was measured:
# Type in all cases: functional
# A-431 [1] = test: Antitumor activity against human A-431 cells xenografted in mouse assessed as reduction in average tumor volume at 1.25 to 40 mg/kg/day, po started on day 14 post-implant, stopped on day 66, and then restarted on day 76 for 2 additional weeks; details: dose 1.25-40 mg/kg/day, read-out: MED
# A-431 [2] = test: Antitumor activity against human A-431 cells xenografted in mouse assessed as average tumor volume at 20 to 40 mg/kg/day, po started on day 14 post-implant and measured on day 23 (reference value: >1200 mg); details: dose 20-40 mg/kg/day, time 23 day
# A-431 [3] = test: Antitumor activity against human A-431 cells xenografted in mouse assessed as average tumor volume at 1.25 to 10 mg/kg/day, po started on day 14 post-implant and measured on day 23 (reference value: >1200 mg); details: dose 1.25-10 mg/kg/day, time 23 day
smiles,measurement,setting,value
C=CC(=O)Nc1cc2c(Nc3ccc(F)c(Cl)c3)ncnc2cc1OCCCN1CCOCC1.Cl.Cl [CANERTINIB DIHYDROCHLORIDE],minimal effective dose,A-431 [1],1.25 mg/kg/day
same,Activity,A-431 [2],<=100 mg
same,Activity,A-431 [3],175 mg
